Measured values from patent publication EP2193713A1, “Method for fighting animal pests without damaging pollinating insects” (Bayer CropScience AG, priority 2008, dated 2010).
Read-outs that look alike come from different tables or passages of the source.

Columns and labels:
Assay type in all cases: in vivo
Apis mellifera [1] = test: Tunnel test / spray application / bees: foraging activity
Text: (§1) Der Test wurde gemäß EPPO (European Plant Protection Organisation) Leitlinie 170 wie folgt durchgeführt:
Während einer Minute werden in einem abgegrenzten Bereich von 2 x 1 m^2 die Bienen gezählt, die auf Blüten absitzen. Tabelle 3 (siehe auch Figur 3)

Apis mellifera [2] = test: Tent test / drench application / bees: foraging activity; conditions: for Aktivität der Nahrungssuche, Zahl der Bienen / min / 4 m^2: 20 mg a.s./pl.
Text: Der Test wurde wie folgt durchgeführt:

Apis mellifera [3] = test: Tunnel test / spray application / bees: acute mortality of pupae in front of the hive
Text: as §1
Tabelle 2 (siehe auch Figur 2)

Apis mellifera [4] = system: Apis mellifera
Text: as §1
Die Mortalität von Arbeiterbienen vor dem Bienenstock wird mittels einer Falle für tote Bienen (dead bee trap) bestimmt. Die Falle besteht aus Maschendraht und ist vor dem Bienenstock angebracht. Einzelne, lebende Bienen können die Maschen des Drahts passieren, der Transport toter Bienen durch die Maschen ist nicht möglich, weswegen tote Bienen sich in der Falle ansammeln. Tabelle 1 (siehe auch Figur 1)

[5] = 75 g a.s./ha, -3 DAA (before application)
[6] = 150 g a.s./ha, -3 DAA (before application)
[7] = 75 g a.s./ha, 0 DAA c (17:15 Uhr)
[8] = 150 g a.s./ha, 0 DAA c (17:15 Uhr)

O=C1C=C(N(Cc2ccc(Cl)nc2)CC(F)F)CO1 [I-5, 4-{[(6-Chlorpyrid-3-yl)methyl](2,2-difluorethyl)amino}furan-2(5H)-on] was tested, and the “Aktivität der Nahrungssuche, Zahl der Bienen / min / m^2” value (Apis mellifera [1]; 75 g a.s./ha, 0 DAA a (09:30 Uhr)) was 25,5 Bienen / min / m^2, the “Aktivität der Nahrungssuche, Zahl der Bienen / min / m^2” value (Apis mellifera [1]; 75 g a.s./ha, 0 DAA c (14:15 Uhr)) was 41 Bienen / min / m^2 and the “Aktivität der Nahrungssuche, Zahl der Bienen / min / m^2” value (Apis mellifera [1]; 75 g a.s./ha, 0 DAA e (17:15 Uhr)) was 42,7 Bienen / min / m^2. The “Aktivität der Nahrungssuche, Zahl der Bienen / min / m^2” value (Apis mellifera [1]; 75 g a.s./ha, 1 DAA b (15:30 Uhr)) was 18,8 Bienen / min / m^2, the “Aktivität der Nahrungssuche, Zahl der Bienen / min / m^2” value (Apis mellifera [1]; 75 g a.s./ha, 2 DAA) was 33,3 Bienen / min / m^2 and the “Aktivität der Nahrungssuche, Zahl der Bienen / min / m^2” value (Apis mellifera [1]; 75 g a.s./ha, 3 DAA) was 40,3 Bienen / min / m^2. The “Aktivität der Nahrungssuche, Zahl der Bienen / min / m^2” value (Apis mellifera [1]; 75 g a.s./ha, 6 DAA) was 37,8 Bienen / min / m^2, the “Aktivität der Nahrungssuche, Zahl der Bienen / min / m^2” value (Apis mellifera [1]; 75 g a.s./ha, -1 DAA (before application)) was 27,3 Bienen / min / m^2 and the “Aktivität der Nahrungssuche, Zahl der Bienen / min / m^2” value (Apis mellifera [1]; 75 g a.s./ha, -2 DAA (before application)) was 34,8 Bienen / min / m^2. For the same compound, the “Aktivität der Nahrungssuche, Zahl der Bienen / min / m^2” value (Apis mellifera [1]; [5]) was 26,5 Bienen / min / m^2, the “Aktivität der Nahrungssuche, Zahl der Bienen / min / m^2” value (Apis mellifera [1]; 150 g a.s./ha, 0 DAA a (09:30 Uhr)) was 28,3 Bienen / min / m^2 and the “Aktivität der Nahrungssuche, Zahl der Bienen / min / m^2” value (Apis mellifera [1]; 150 g a.s./ha, 0 DAA c (14:15 Uhr)) was 40,2 Bienen / min / m^2. The “Aktivität der Nahrungssuche, Zahl der Bienen / min / m^2” value (Apis mellifera [1]; 150 g a.s./ha, 0 DAA e (17:15 Uhr)) was 39 Bienen / min / m^2, the “Aktivität der Nahrungssuche, Zahl der Bienen / min / m^2” value (Apis mellifera [1]; 150 g a.s./ha, 1 DAA b (15:30 Uhr)) was 19,2 Bienen / min / m^2 and the “Aktivität der Nahrungssuche, Zahl der Bienen / min / m^2” value (Apis mellifera [1]; 150 g a.s./ha, 2 DAA) was 35,7 Bienen / min / m^2. The “Aktivität der Nahrungssuche, Zahl der Bienen / min / m^2” value (Apis mellifera [1]; 150 g a.s./ha, 3 DAA) was 39,3 Bienen / min / m^2, the “Aktivität der Nahrungssuche, Zahl der Bienen / min / m^2” value (Apis mellifera [1]; 150 g a.s./ha, 6 DAA) was 37,5 Bienen / min / m^2 and the “Aktivität der Nahrungssuche, Zahl der Bienen / min / m^2” value (Apis mellifera [1]; 150 g a.s./ha, -1 DAA (before application)) was 26,3 Bienen / min / m^2. The “Aktivität der Nahrungssuche, Zahl der Bienen / min / m^2” value (Apis mellifera [1]; 150 g a.s./ha, -2 DAA (before application)) was 34,2 Bienen / min / m^2, the “Aktivität der Nahrungssuche, Zahl der Bienen / min / m^2” value (Apis mellifera [1]; [6]) was 27 Bienen / min / m^2 and the “Aktivität der Nahrungssuche” value (Apis mellifera [1]; result in words, tunnel test, spray, I-5 75 und 150 g a.s./ha, Thiamethoxam 50 g a.s./ha directly after application) was “keine Änderung”. For the same compound, the “Aktivität der Nahrungssuche, Zahl der Bienen / min / 4 m^2” value (Apis mellifera [2]; 5 DAA) was 26 Bienen / min / 4 m^2, the “Aktivität der Nahrungssuche, Zahl der Bienen / min / 4 m^2” value (Apis mellifera [2]; 6 DAA b (14:30 Uhr)) was 73 Bienen / min / 4 m^2 and the “Aktivität der Nahrungssuche, Zahl der Bienen / min / 4 m^2” value (Apis mellifera [2]; 7 DAA) was 21 Bienen / min / 4 m^2. The “Aktivität der Nahrungssuche, Zahl der Bienen / min / 4 m^2” value (Apis mellifera [2]; 8 DAA) was 70 Bienen / min / 4 m^2, the “Aktivität der Nahrungssuche, Zahl der Bienen / min / 4 m^2” value (Apis mellifera [2]; 9 DAA) was 41 Bienen / min / 4 m^2 and the “Aktivität der Nahrungssuche, Zahl der Bienen / min / 4 m^2” value (Apis mellifera [2]; 11 DAA) was 31 Bienen / min / 4 m^2. For the same compound, the “Aktivität der Nahrungssuche, Zahl der Bienen / min / 4 m^2” value (Apis mellifera [2]; 13 DAA) was 86 Bienen / min / 4 m^2, the “Aktivität der Nahrungssuche, Zahl der Bienen / min / 4 m^2” value (Apis mellifera [2]; 15 DAA) was 43 Bienen / min / 4 m^2 and the “Aktivität der Nahrungssuche, Zahl der Bienen / min / 4 m^2” value (Apis mellifera [2]; 16 DAA) was 51 Bienen / min / 4 m^2. For the same compound, the “Aktivität der Nahrungssuche, Zahl der Bienen / min / 4 m^2” value (Apis mellifera [2]; 17 DAA) was 98 Bienen / min / 4 m^2, the “Aktivität der Nahrungssuche, Zahl der Bienen / min / 4 m^2” value (Apis mellifera [2]; 18 DAA) was 71 Bienen / min / 4 m^2 and the “Aktivität der Nahrungssuche” value (Apis mellifera [2]; result in words, tent test, drench, I-5 20 mg a.s. / Pflanze, Thiamethoxam 10 mg a.s. / Pflanze (13 Tage nach Applikation)) was “keine Änderung”. For the same compound, the “Zahl toter Puppen” value (Apis mellifera [3]; [7]) was 0, the “Zahl toter Puppen” value (Apis mellifera [3]; 75 g a.s./ha, 1 DAA) was 0 and the “Zahl toter Puppen” value (Apis mellifera [3]; 75 g a.s./ha, 2 DAA) was 0,3. The “Zahl toter Puppen” value (Apis mellifera [3]; 75 g a.s./ha, 5 DAA) was 0, the “Zahl toter Puppen” value (Apis mellifera [3]; 75 g a.s./ha, 6 DAA) was 0 and the “Zahl toter Puppen” value (Apis mellifera [3]; 75 g a.s./ha, 11 DAA) was 0,3. The “Zahl toter Puppen” value (Apis mellifera [3]; 75 g a.s./ha, 14 DAA) was 0, the “Zahl toter Puppen” value (Apis mellifera [3]; 75 g a.s./ha, 18 DAA) was 0 and the “Zahl toter Puppen” value (Apis mellifera [3]; 75 g a.s./ha, 21 DAA) was 0. For the same compound, the “Zahl toter Puppen” value (Apis mellifera [3]; 75 g a.s./ha, 25 DAA) was 0, the “Zahl toter Puppen” value (Apis mellifera [3]; [5]) was 0 and the “Zahl toter Puppen” value (Apis mellifera [3]; [8]) was 0. For the same compound, the “Zahl toter Puppen” value (Apis mellifera [3]; 150 g a.s./ha, 1 DAA) was 0, the “Zahl toter Puppen” value (Apis mellifera [3]; 150 g a.s./ha, 2 DAA) was 0 and the “Zahl toter Puppen” value (Apis mellifera [3]; 150 g a.s./ha, 5 DAA) was 0. For the same compound, the “Zahl toter Puppen” value (Apis mellifera [3]; 150 g a.s./ha, 6 DAA) was 0, the “Zahl toter Puppen” value (Apis mellifera [3]; 150 g a.s./ha, 11 DAA) was 0 and the “Zahl toter Puppen” value (Apis mellifera [3]; 150 g a.s./ha, 14 DAA) was 0,7. For the same compound, the “Zahl toter Puppen” value (Apis mellifera [3]; 150 g a.s./ha, 18 DAA) was 0, the “Zahl toter Puppen” value (Apis mellifera [3]; 150 g a.s./ha, 21 DAA) was 0 and the “Zahl toter Puppen” value (Apis mellifera [3]; 150 g a.s./ha, 25 DAA) was 0. The “Zahl toter Puppen” value (Apis mellifera [3]; [6]) was 0, the “Mortalität von Puppen vor dem Bienenstock” value (Apis mellifera [3]; result in words, tunnel test, spray, I-5 75 und 150 g a.s./ha, Fenoxycarb 150 g a.s./ha) was “keine Mortalität” and the “Zahl toter Arbeiterbienen” value (Apis mellifera [4]; 75 g a.s./ha, 0 DAA b (15:15 Uhr)) was 0. The “Zahl toter Arbeiterbienen” value (Apis mellifera [4]; [7]) was 0,7, the “Zahl toter Arbeiterbienen” value (Apis mellifera [4]; 75 g a.s./ha, 1 DAA) was 0 and the “Zahl toter Arbeiterbienen” value (Apis mellifera [4]; 75 g a.s./ha, 2 DAA) was 0,3. For the same compound, the “Zahl toter Arbeiterbienen” value (Apis mellifera [4]; 75 g a.s./ha, 3 DAA) was 0,3, the “Zahl toter Arbeiterbienen” value (Apis mellifera [4]; 75 g a.s./ha, 4 DAA) was 3,7 and the “Zahl toter Arbeiterbienen” value (Apis mellifera [4]; 75 g a.s./ha, 5 DAA) was 0,3. For the same compound, the “Zahl toter Arbeiterbienen” value (Apis mellifera [4]; 75 g a.s./ha, 6 DAA) was 4,3, the “Zahl toter Arbeiterbienen” value (Apis mellifera [4]; 75 g a.s./ha, 11 DAA) was 0 and the “Zahl toter Arbeiterbienen” value (Apis mellifera [4]; [5]) was 0,3. For the same compound, the “Zahl toter Arbeiterbienen” value (Apis mellifera [4]; 150 g a.s./ha, 0 DAA b (15:15 Uhr)) was 1,3, the “Zahl toter Arbeiterbienen” value (Apis mellifera [4]; [8]) was 0,3 and the “Zahl toter Arbeiterbienen” value (Apis mellifera [4]; 150 g a.s./ha, 1 DAA) was 0.
